Source: patent publication US8067611B2, “Substituted 1-(thiazolyl)-and 1-(isothiazolyl)pyrazol-4-ylacetic acids, processes for their preparation and their use as herbicides and plant growth regulators” (Bayer CropScience AG, priority 2008, dated 2011)

Legend:
[1] = system: harmful plants; assay: Pre-emergence herbicidal effect, greenhouse pot test; assay type: in vivo; conditions: application rate of 1 kg or less of active substance per hectare, scored after about 3 weeks
Text: Seeds of monocotyledonous or dicotyledonous weed plants or crop plants are planted in wood-fiber pots in sandy loam and covered with soil. The compounds (I) according to the invention, formulated in the form of wettable powders (WP), are then applied as aqueous suspension or emulsion at a water application rate of 600 I/ha (converted) with the addition of 0.2% of wetting agent to the surface of the covering soil.
Following the treatment, the pots are placed in a greenhouse and kept under good growth conditions for the test plants. After about 3 weeks, the effect of the preparations is scored visually in comparison with untreated controls (herbicidal effect in percent (%): 100% effect=plants have died, 0% effect=as control plants).

[2] = system: weed-grasses and broad-leaved weeds; assay: Post-emergence herbicidal effect, greenhouse pot test; assay type: in vivo; conditions: application rate of 1 kg and less of active substance per hectare, scored after 3 weeks
Procedure: Seeds of monocotyledonous or dicotyledonous weed plants or crop plants are planted in wood-fiber pots in sandy loam, covered with soil and grown in a greenhouse under good growth conditions. 2 to 3 weeks after sowing, the test plants are treated in the one-leaf stage. The compounds according to the invention, formulated in the form of wettable powders (WP), are then sprayed onto the green plant parts as aqueous suspension or emulsion at a water application rate of 600 I/ha (converted) with the addition of 0.2% of wetting agent. After 3 weeks' standing time of the test plants in the greenhouse under optimum growth conditions, the effect of the preparations is scored visually in comparison with untreated controls (herbicidal effect in percent (%): 100% effect=plants have died, 0% effect=as control plants).

SMILES | herbicidal pre-emergence activity against a number of harmful plants [1] | post-emergence activity against a broad spectrum of weed-grasses and broad-leaved weeds [2]
COC(=O)Cc1c(C)nn(-c2cncs2)c1-c1cc(C)c(Cl)cn1 [Compound 8-294] | good herbicidal pre-emergence activity | good post-emergence activity
COC(=O)Cc1c(C)nn(-c2cnsc2)c1-c1ccc(Cl)cc1 [Compound 5-28] | good herbicidal pre-emergence activity | good post-emergence activity
COC(=O)Cc1c(C)nn(-c2cnsc2)c1-c1ccc(F)cc1 [Compound 5-131] | good herbicidal pre-emergence activity | good post-emergence activity
COC(=O)Cc1c(C)nn(-c2cnsc2)c1-c1ccc(Br)cn1 [Compound 5-119] | good herbicidal pre-emergence activity | good post-emergence activity
COC(=O)Cc1c(C)nn(-c2cnsc2)c1-c1ccc2ccccc2n1 [Compound 5-239] | good herbicidal pre-emergence activity | good post-emergence activity
COC(=O)Cc1c(C)nn(-c2ccns2)c1-c1ccccc1 [Compound 2-2] | good herbicidal pre-emergence activity | good post-emergence activity
COC(=O)Cc1c(C)nn(-c2ccns2)c1-c1ccc(Br)s1 [Compound 2-68] | good herbicidal pre-emergence activity | good post-emergence activity
COC(=O)Cc1c(C)nn(-c2cnsc2)c1-c1nc2ccccc2s1 [Compound 5-216] | good herbicidal pre-emergence activity | good post-emergence activity
COC(=O)Cc1c(C)nn(-c2cncs2)c1-c1nc2ccccc2s1 [Compound 8-219] | good herbicidal pre-emergence activity | good post-emergence activity
COC(=O)Cc1c(C)nn(-c2cncs2)c1-c1ccco1 [Compound 8-4] | good herbicidal pre-emergence activity | good post-emergence activity
CCOC(=O)c1ncsc1-n1nc(C)c(CC(=O)OC)c1-c1ccccn1 [Compound 8-241, Ethyl 5-[4-(2-methoxy-2-oxoethyl)-3-methyl-5-(pyridin-2-yl)-1H-pyrazol-1-yl]-1,3-thiazole-4-carboxylate] | good herbicidal pre-emergence activity | good post-emergence activity
Cc1nn(-c2cncs2)c(-c2ccc(Cl)cc2)c1CC(=O)OCC1CC1 [Compound 9-122] | good herbicidal pre-emergence activity | good post-emergence activity
COC(=O)Cc1c(C)nn(-c2ccns2)c1-c1ccc(Cl)cc1 [Compound 2-28] | good herbicidal pre-emergence activity | good post-emergence activity
COC(=O)Cc1c(C)nn(-c2cnsc2)c1-c1ccccn1 [Compound 5-115] | good herbicidal pre-emergence activity | good post-emergence activity
COC(=O)Cc1c(C)nn(-c2cncs2)c1-c1sccc1C [Compound 8-64] | good herbicidal pre-emergence activity | good post-emergence activity
COC(=O)Cc1c(C)nn(-c2cc(C)ns2)c1-c1ccc(Cl)cc1 [Compound 2-147, Methyl[5-(4-chlorophenyl)-3-methyl-1-(3-methylisothiazol-5-yl)-1H-pyrazol-4-yl]acetate] | good herbicidal pre-emergence activity | good post-emergence activity

SMILES | herbicidal pre-emergence activity against a number of harmful plants [1] | post-emergence activity against a broad spectrum of weed-grasses and broad-leaved weeds [2]
COC(=O)Cc1c(C)nn(-c2cncs2)c1-c1ccc(Cl)cn1 [Compound 8-118] | good herbicidal pre-emergence activity | good post-emergence activity
COC(=O)Cc1c(C)nn(-c2cnsc2)c1-c1ccc(Cl)cn1 [Compound 5-116] | good herbicidal pre-emergence activity | good post-emergence activity
COC(=O)Cc1c(C)nn(-c2cncs2)c1-c1ccc(Br)cn1 [Compound 8-121] | good herbicidal pre-emergence activity | good post-emergence activity
COC(=O)Cc1c(C)nn(-c2cnsc2)c1-c1cc2ccccc2cn1 [Compound 5-240] | good herbicidal pre-emergence activity | good post-emergence activity
COC(=O)Cc1c(C)nn(-c2cncs2)c1-c1ncc(Br)cn1 [Compound 8-230] | good herbicidal pre-emergence activity | good post-emergence activity
COC(=O)Cc1c(C)nn(-c2cncs2)c1-c1ccc(C(F)(F)F)cc1 [Compound 8-32] | good herbicidal pre-emergence activity | good post-emergence activity
Cc1nn(-c2ccns2)c(-c2ccc(Br)cn2)c1CC(=O)O [Compound 1-119] | good herbicidal pre-emergence activity | good post-emergence activity
COC(=O)Cc1c(C)nn(-c2cncs2)c1-c1ccc(-c2ccccc2)cc1 [Compound 8-276] | good herbicidal pre-emergence activity | good post-emergence activity
COC(=O)Cc1c(C)nn(-c2cncs2)c1-c1ccccn1 [Compound 8-117] | good herbicidal pre-emergence activity | good post-emergence activity
COC(=O)Cc1c(C)nn(-c2cnsc2)c1-c1ccccc1 [Compound 5-2] | good herbicidal pre-emergence activity | good post-emergence activity
COC(=O)Cc1c(C)nn(-c2cncs2)c1-c1ccccc1 [Compound 8-2] | good herbicidal pre-emergence activity | good post-emergence activity
COC(=O)Cc1c(C)nn(-c2ccns2)c1-c1ccc(Br)cn1 [Compound 2-120] | good herbicidal pre-emergence activity | good post-emergence activity
COC(=O)Cc1c(C)nn(-c2cncs2)c1-c1ccc(C)cc1 [Compound 8-16] | good herbicidal pre-emergence activity | good post-emergence activity
Cc1nn(-c2cncs2)c(-c2ccc(Cl)cc2)c1CC(=O)O [Compound 7-29, [5-(4-Chlorophenyl)-3-methyl-1-(1,3-thiazol-5-yl)-1H-pyrazol-4-yl]acetic acid] | good herbicidal pre-emergence activity | good post-emergence activity
COC(=O)Cc1c(C)nn(-c2cncs2)c1-c1ccc2ccccc2n1 [Compound 8-239] | good herbicidal pre-emergence activity | good post-emergence activity
COC(=O)Cc1c(C)nn(-c2cncs2)c1-c1ncc(Cl)cn1 [Compound 8-229] | good herbicidal pre-emergence activity | good post-emergence activity
